# Marks after values point to notes of the source that are not given here.
# How the values were obtained:
# [1] = target: T1, human NaV1.7 channel (SCN9A, CHO cells) (Homo sapiens, UniProt Q15858); experiment: Planar patch-clamp, biophysical properties (activation, SSFI, recovery from SSFI); type: cell-based; settings: change vs vehicle DMSO at IC50 concentration (CBD 11.9 μM, CBGA 16.4 μM, CBDVA 60 μM)
# T1 construct: expressed in transfected cells
# Experimental: (§1) HEK293T cells stably expressing SCN1A or SCN2A and CHO cells stably expressing SCN8A or SCN9A were maintained as previously described ([Richards et al., 2018]; [Milligan et al., 2022]).
# (§2) Patch-clamp recordings were made using a Patchliner® (Nanion Technologies, Munich, Germany) in the whole-cell configuration as previously described ([Richards et al., 2018]; [Milligan et al., 2022]). Briefly, cells were prepared in suspension at a density of 1 × 10^6-5 × 10^7 cells/mL. The external recording solution comprised (in mM): 140 NaCl, 4 KCl, 1 MgCl2, 2 CaCl2, 5 D-glucose, 10 HEPES, pH 7.4 with NaOH, ∼295 mOsm. The internal recording solution comprised (in mM): 50 CsCl, 60 CsF, 10 NaCl, 20 EGTA, 10 HEPES, pH 7.2 with CsOH, ∼285 mOsm. Medium single-hole planar NPC-16 chips with an average resistance of ∼2.5 MΩ were used. Chip and whole-cell capacitance were fully compensated, and 50% series resistance compensation applied. Recordings were acquired at 50 kHz with the low pass filter set to 10 kHz in PATCHMASTER (HEKA Instruments, NY, United States) and performed at 27°C. Offline analysis was performed using Microsoft Excel, MatLab R2019a (MathWorks) and GraphPad Prism 8 (Molecular Devices).
# (§3) Voltage protocols were used, as previously described ([Richards et al., 2018]). Briefly, to study the voltage-dependence of activation, cells were held at −120 mV and depolarized to test potentials, in 5 mV increments, between −120 mV and +50 mV for 100 ms. To study steady-state fast inactivation, cells were held at conditioning pre-pulse potentials ranging from −120 mV to +30 mV in 5 mV increments from a holding potential of −120 mV and a test pulse at 5 mV for 20 ms. Recovery from fast inactivation was studied by pre-pulsing the cells to 0 mV from a holding potential of −120 mV for 50 ms, to fully inactivate channels. The voltage was then stepped back to the holding potential for variable interpulse intervals (ipi from 0 to 39 ms in 3 ms increments). To test channel availability, the voltage was stepped to 0 mV for 50 ms.
# (§4) To examine the voltage-dependence of activation, normalized current-voltage (I-V) relationships were converted to conductance (G) using the following equation: G = I/(V−V r ) where Vr is the reversal potential for Na^+. The voltage-dependence of conductance and availability were normalized and fitted to a Boltzmann equation: G = 1/(1 + exp [(V−V 0.5)/a]), where a is the slope of the half-maximum, V is the potential of the given pulse, and V 0.5 is the potential for the half-maximal activation/inactivation. The time course of inactivation was fitted to a single exponential function I/Imax = I0+A*exp (-t-t0/τ)+C, where I0 is the non-inactivating component, Imax is the peak current, t is time, and A is the component for the time constant τ. Time constants were plotted against voltage and the data fitted with a decaying exponential equation Y = span*exp (−K*x)+plateau, where span is the starting point of the curve, K is the decay factor, plateau is the value the curve decays to, and x is time. To measure recovery from inactivation, normalized currents were plotted against ipi and data fitted with equation I/I max = 1-exp/(rc + x), where I max is maximal current; rc recovery rate constant; x is time. Peak current (I) was plotted as fractional recovery against the recovery period by normalizing to the maximum current (Imax) during the conditioning potentials.
# [2] = target: T2, human NaV1.6 channel (SCN8A, CHO cells) (Homo sapiens, UniProt Q9UQD0); experiment: as above; type: cell-based; settings: change vs vehicle DMSO at IC50 concentration (CBD 16.6 μM, CBGA 12.0 μM, CBDVA 24.1 μM)
# T2 construct: expressed in transfected cells
# Experimental: as §1, §2, §3, §4
# [3] = target: T3, human NaV1.2 channel (SCN2A, HEK293T cells) (Homo sapiens, UniProt Q99250); experiment: as above; type: cell-based; settings: change vs vehicle DMSO at IC50 concentration (CBD 18.4 μM, CBGA 14.7 μM, CBDVA 60 μM)
# T3 construct: expressed in transfected cells
# Experimental: as §1, §2, §3, §4
# [4] = target: T4, human NaV1.1 channel (SCN1A, HEK293T cells) (Homo sapiens, UniProt P35498); experiment: as above; type: cell-based; settings: change vs vehicle DMSO at IC50 concentration (CBD 18.5 μM, CBGA 13.6 μM, CBDVA 50 μM)
# T4 construct: expressed in transfected cells
# Experimental: as §1, §2, §3, §4
# [5] = target: T4, human NaV1.1 channel (SCN1A, HEK293T cells); set-up: method as in Milligan et al., 2022; settings: NaV1.1 concentration-response of CBD; mean ± SEM; ref Milligan et al., 2022; cited from earlier work
# [6] = target: T2, human NaV1.6 channel (SCN8A, CHO cells); set-up: method as in Milligan et al., 2022; settings: NaV1.6 concentration-response of CBD; mean ± SEM; ref Milligan et al., 2022; cited from earlier work
# [7] = test system: mouse models of neuropathic pain; set-up: method as in Abraham et al., 2020; Casey et al., 2022; settings: ref Abraham et al., 2020, Casey et al., 2022; cited from earlier work
# [8] = target: T3, human NaV1.2 channel (SCN2A, HEK293T cells); set-up: method as in Milligan et al., 2022; settings: NaV1.2 concentration-response of CBD; mean ± SEM; ref Milligan et al., 2022; cited from earlier work
# [9] = target: T1, human NaV1.7 channel (SCN9A, CHO cells); set-up: method as in Milligan et al., 2022; settings: NaV1.7 concentration-response of CBD; mean ± SEM; ref Milligan et al., 2022; cited from earlier work
# [10] = test system: patients with Dravet syndrome (DS) and Lennox-Gastaut syndrome (LGS); set-up: method as in earlier work; settings: Phase III clinical trials, ref Devinsky et al., 2017a, 2017b, 2018, 2020, 2021, Tang and Fang; cited from earlier work
# T3 sequence (Q99250 whole entry): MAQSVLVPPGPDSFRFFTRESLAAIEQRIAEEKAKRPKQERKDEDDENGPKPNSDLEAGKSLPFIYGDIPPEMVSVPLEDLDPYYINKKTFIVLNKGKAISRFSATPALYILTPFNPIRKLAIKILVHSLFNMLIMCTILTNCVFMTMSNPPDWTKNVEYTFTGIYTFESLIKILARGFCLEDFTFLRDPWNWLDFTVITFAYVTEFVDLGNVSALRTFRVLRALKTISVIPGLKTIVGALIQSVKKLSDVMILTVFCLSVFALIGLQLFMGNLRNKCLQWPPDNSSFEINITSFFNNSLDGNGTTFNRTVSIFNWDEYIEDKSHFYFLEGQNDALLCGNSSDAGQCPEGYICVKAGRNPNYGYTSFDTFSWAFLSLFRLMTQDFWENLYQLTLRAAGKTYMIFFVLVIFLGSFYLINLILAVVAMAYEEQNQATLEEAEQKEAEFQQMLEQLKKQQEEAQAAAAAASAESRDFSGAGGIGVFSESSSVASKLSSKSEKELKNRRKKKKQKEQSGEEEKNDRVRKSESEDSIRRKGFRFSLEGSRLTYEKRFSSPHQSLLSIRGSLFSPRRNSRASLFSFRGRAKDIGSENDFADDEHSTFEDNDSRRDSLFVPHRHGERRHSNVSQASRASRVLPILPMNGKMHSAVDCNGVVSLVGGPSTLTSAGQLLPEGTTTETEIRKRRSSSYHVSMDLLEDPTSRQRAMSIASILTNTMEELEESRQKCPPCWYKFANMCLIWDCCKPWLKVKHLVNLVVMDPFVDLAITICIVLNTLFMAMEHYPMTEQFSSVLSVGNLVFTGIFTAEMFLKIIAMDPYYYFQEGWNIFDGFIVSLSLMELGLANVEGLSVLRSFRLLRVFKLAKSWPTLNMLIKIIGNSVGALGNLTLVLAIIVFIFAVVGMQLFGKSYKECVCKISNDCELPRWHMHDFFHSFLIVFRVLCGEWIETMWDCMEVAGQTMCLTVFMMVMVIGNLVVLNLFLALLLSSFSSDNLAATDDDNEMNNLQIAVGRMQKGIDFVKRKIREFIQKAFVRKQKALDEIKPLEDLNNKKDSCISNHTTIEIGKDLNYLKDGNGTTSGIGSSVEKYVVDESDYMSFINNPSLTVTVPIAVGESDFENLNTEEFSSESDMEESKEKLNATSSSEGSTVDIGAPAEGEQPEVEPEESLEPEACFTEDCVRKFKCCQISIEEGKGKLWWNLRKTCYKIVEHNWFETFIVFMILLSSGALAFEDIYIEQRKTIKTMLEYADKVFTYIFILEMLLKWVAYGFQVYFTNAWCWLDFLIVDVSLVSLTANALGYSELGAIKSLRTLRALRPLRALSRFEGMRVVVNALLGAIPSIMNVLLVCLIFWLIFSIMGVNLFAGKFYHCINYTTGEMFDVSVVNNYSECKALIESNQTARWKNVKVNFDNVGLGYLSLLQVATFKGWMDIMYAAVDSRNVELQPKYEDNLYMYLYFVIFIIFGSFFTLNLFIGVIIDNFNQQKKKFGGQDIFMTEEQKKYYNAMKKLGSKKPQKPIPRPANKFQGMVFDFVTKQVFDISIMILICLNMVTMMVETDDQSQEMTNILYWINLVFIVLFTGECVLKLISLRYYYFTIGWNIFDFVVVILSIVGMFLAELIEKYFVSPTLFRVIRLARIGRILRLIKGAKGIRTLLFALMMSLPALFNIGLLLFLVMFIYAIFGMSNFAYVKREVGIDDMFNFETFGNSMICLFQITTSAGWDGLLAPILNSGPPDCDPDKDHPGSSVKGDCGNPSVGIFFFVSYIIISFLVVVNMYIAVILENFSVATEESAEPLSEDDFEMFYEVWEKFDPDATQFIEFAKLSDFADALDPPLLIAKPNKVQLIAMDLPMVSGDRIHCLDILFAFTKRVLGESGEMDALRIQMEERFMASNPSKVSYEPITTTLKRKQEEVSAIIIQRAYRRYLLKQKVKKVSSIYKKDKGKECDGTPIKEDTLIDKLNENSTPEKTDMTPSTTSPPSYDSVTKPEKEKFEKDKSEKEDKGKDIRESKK
# T2 sequence (Q9UQD0 whole entry): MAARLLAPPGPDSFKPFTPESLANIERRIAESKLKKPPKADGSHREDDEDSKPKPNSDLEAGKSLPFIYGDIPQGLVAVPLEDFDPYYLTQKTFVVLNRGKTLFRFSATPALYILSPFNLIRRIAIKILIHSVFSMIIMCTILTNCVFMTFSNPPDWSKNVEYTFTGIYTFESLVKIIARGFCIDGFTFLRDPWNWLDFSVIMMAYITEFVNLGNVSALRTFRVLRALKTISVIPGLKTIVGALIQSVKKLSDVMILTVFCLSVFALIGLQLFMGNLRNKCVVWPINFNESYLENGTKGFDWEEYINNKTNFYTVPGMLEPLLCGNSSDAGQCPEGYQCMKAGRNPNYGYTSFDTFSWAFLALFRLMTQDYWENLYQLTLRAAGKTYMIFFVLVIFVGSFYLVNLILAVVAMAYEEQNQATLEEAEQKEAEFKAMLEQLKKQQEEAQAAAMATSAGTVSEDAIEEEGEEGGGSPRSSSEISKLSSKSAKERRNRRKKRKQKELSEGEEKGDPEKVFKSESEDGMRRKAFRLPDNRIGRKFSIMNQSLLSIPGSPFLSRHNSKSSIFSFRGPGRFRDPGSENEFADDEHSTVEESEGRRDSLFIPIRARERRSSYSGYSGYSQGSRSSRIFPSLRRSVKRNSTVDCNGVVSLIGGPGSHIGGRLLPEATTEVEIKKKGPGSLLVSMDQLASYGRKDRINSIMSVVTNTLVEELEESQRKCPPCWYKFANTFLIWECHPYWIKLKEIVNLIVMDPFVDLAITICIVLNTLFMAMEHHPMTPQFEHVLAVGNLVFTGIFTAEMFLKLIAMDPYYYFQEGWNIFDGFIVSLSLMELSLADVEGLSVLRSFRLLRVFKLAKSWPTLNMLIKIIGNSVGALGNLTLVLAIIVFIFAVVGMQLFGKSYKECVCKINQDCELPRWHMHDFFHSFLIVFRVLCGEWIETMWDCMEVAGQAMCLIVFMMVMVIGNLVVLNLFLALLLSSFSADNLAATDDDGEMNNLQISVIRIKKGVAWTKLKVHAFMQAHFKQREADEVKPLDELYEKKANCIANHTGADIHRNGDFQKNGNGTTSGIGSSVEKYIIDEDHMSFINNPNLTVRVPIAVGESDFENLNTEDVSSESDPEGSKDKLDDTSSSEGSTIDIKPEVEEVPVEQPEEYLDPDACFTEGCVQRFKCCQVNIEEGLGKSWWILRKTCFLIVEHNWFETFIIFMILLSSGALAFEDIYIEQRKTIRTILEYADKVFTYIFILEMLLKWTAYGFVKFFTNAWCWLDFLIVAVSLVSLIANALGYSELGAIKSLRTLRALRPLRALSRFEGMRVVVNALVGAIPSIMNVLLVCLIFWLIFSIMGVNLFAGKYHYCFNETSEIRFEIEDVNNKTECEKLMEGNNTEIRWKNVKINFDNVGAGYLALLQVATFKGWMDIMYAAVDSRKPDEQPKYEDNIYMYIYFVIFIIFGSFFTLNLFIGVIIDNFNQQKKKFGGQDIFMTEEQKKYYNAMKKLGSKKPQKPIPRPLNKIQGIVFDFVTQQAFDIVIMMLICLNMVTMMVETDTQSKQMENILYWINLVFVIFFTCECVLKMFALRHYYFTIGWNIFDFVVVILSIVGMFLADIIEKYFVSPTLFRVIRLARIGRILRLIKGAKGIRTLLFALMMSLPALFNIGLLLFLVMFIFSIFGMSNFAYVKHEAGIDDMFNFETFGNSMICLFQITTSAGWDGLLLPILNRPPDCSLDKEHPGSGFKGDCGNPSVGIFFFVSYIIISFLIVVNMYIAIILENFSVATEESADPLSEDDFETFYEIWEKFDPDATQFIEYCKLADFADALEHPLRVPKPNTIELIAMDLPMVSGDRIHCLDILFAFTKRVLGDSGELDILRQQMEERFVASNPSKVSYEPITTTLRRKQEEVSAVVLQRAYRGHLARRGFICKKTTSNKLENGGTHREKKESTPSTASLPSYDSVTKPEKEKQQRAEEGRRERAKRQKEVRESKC
smiles,measurement,setting,value
"C=C(C)[C@@H]1CCC(C)=C[C@H]1c1c(O)cc(CCCCC)cc1O [CBD, cannabidiol, reference compound]",Inactivation △ V0.5 inact,[1]; SSFI,−3.7 ± 1.2** mV
same,Inactivation △ slope factor,[1]; SSFI,1.2 ± 0.3***
same,Activation △ Slope factor,[1],1.9 ± 0.3****
same,Activation △ V0.5 act,[1],5.7 ± 2.3* mV
same,Inactivation △ τinact SSFI at 5 mV,[1],0.3 ± 0.1*
same,Inactivation △ V0.5 inact,[2]; SSFI,−5.3 ± 3.6 mV
same,Inactivation △ slope factor,[2]; SSFI,−0.3 ± 0.7
same,Activation △ Slope factor,[2],0.2 ± 0.2
same,Activation △ V0.5 act,[2],−0.6 ± 1.1 mV
same,Inactivation △ τinact SSFI at 5 mV,[2],0.03 ± 0.06
same,Inactivation △ V0.5 inact,[3]; SSFI,−4.2 ± 1.9 mV
same,Inactivation △ slope factor,[3]; SSFI,0.1 ± 0.2
same,Activation △ Slope factor,[3],1.0 ± 0.3*
same,Activation △ V0.5 act,[3],3.3 ± 2.7 mV
same,Inactivation △ τinact SSFI at 5 mV,[3],0.08 ± 0.07
same,Inactivation △ V0.5 inact,[4]; SSFI,−5.6 ± 1.1**** mV
same,Inactivation △ slope factor,[4]; SSFI,0.5 ± 0.3
same,Activation △ Slope factor,[4],0.7 ± 0.2**
same,Activation △ V0.5 act,[4],0.3 ± 1.2 mV
same,Inactivation △ τinact SSFI at 5 mV,[4],0.03 ± 0.02
same,Slope (Hill slope coefficient),[5],2.1 ± 0.8
same,Slope (Hill slope coefficient),[6],1.3 ± 0.4
same,Effect on allodynia,[7],reduced allodynia
same,Slope (Hill slope coefficient),[8],1.4 ± 0.4
same,Slope (Hill slope coefficient),[9],3.1 ± 0.6
same,Effect on seizures in patients,[10],reduced seizures
